Assay results: US12060588B2, “Methods of editing DNA methylation” (Whitehead Institute for Biomedical Research, priority 2016, dated 2024)

Tests used:
BDNF promoter IV = test: Tet-assisted bisulfite sequencing (TAB-seq) of 5-hmC in BDNF promoter IV; assay type: cell-based, mouse; details: with 4 BDNF gRNAs; 40 and 60 hours post infection
Experimental: FIGS. 11A-11L depict targeted demethylation of BDNF promoter IV by dCas9-Tet1 in neurons. […] PAM for each gRNA is highlighted by a red box. […] Note that cultured neurons were treated with AraC on DIV2 to halt cell division in glial cells and neural progenitors. […] FIG. 11C provides EDU labeling analysis for the mouse primary neurons over the course of KCl treatment for 24 hrs. Note that extremely few EDU positive cells were observed. Stained in red for EDU, green for MAP2 and DAPI for nuclei. Scale bar: 500 um. FIG. 11D Upper panel: provides quantification of neuronal density over the course of KCl treatment. The post-mitotic neuron density remains steadily around 4.5×10^4/cm2 over time. Bars represent mean±SD of three experimental replicates. Lower panel: provides quantification of the EDU positive cells over the course of KCl treatment. Less than 2% of the cells are EDU-positive over 24 hrs. Bars represent mean±SD of three experimental replicates. FIG. 11E provides confocal micrographs of BDNF induction by ectopic expression of dCas9-Tet1 and a set of 4 gRNAs targeting BDNF promoter IV. Stained in green for BDNF, magenta for MAP2, red for Cherry and blue for DAPI. […]
Because post-mitotic neurons were used for these experiments, loss of methylation was likely due to active demethylation. […] Similarly, 5-hmC was also detected after KCl treatment (FIG. 11I). […]

[1] = test system: Snrpn promoter region (Dazl-Snrpn-GFP reporter); test: Activation of the Dazl-Snrpn-GFP methylation reporter in mESCs (flow cytometry); assay type: cell-based, mouse; details: lentiviral infection, 3 days, FACS
Experimental: FIGS. 1A-IF depict activation of the Daz1-Snrpn-GFP reporter by dCas9-Tet1. […] FIG. 1B is a schematic representation of targeting the Snrpn promoter region by dCas9-Tet1 with specific gRNAs to erase methylation and activate GFP expression. […] Percentage of GFP positive cells were calculated by flow cytometric analysis of these cells 3-day post infection, and shown as the mean percentages of GFP positive cells±SD of two biological replicates. Note that the percentages of GFP-positive cells are expressed as the fraction of infected Cherry-positive cells. […] Scale bar: 250 um. Right: provides percentages of GFP positive colonies were quantified, and shown as the mean percentages of GFP positive cells±SD of two biological replicates. […] FIG. 1F provides methylation levels of individual CpGs in the Snrpn promoter region and the adjacent Dazl locus. Shown is the mean percentage±SD of two biological replicates.
To assess whether the dCas9-Tet1 and -Dnmt3a fusion constructs would induce demethylation or de novo methylation, respectively, of specific sequences, we utilized a methylation reporter system previously developed in our laboratory (Stelzer et al., 2015). This reporter system consists of a synthetic methylation-sensing promoter (conserved sequence elements from the promoter of an imprinted gene, Snrpn) that controls the expression of a green fluorescence protein (GFP). […]

**Q.** Which “5-hmC level in BDNF promoter IV” value (BDNF promoter IV) does the source give for “dCas9-Tet1: catalytically inactive Cas9 (dCas9) fused through NLS to the Tet1 catalytic domain, SEQ ID NO: 159; lentivirally expressed with gRNAs” here?
**A.** detected 40-hour post infection with dCas9-Tet1 and gRNA lentiviruses and diminished after 60 hours

**Q.** What about the “GFP positive cells among the Cherry positive population” value ([1]; with 4 target gRNAs (Snrpn promoter)) of the same substance?
**A.** about 26%

**Q.** And the “GFP positive cells among the Cherry positive population” value ([1]; with a scrambled gRNA)?
**A.** 1%
